Laboratory results taken from the supplement of paper PMC10307832.

How the values were obtained:
Assay in all cases: relative viability (nuclei count vs DMSO), 5 days (fraction); higher = more cells survive
[1] = system: NCI-H1792
Summary of the method: (§1)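 Relative viability equals treated-well nuclei counts divided by vehicle-well nuclei counts. Counts came from 4× images of lung cancer cell lines grown in 1536-well plates for 5 days after pin-tool dosing on the day after seeding. Dosing used one drug alone or a fixed anchor-drug dose plus five library-drug doses (not always all listed) in √10 steps, and values are medians of duplicate plates.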

[2] = system: LC-2-ad
Summary of the method: as §1

[3] = system: SK-LU-1
Summary of the method: as §1

[4] = system: LXF-289
Summary of the method: as §1

[5] = system: NCI-H2085
Summary of the method: as §1

[6] = system: HCC-78
Summary of the method: as §1

[7] = system: LU99A
Summary of the method: as §1

[8] = system: NCI-H1755
Summary of the method: as §1

[9] = system: COR-L 105
Summary of the method: as §1

[10] = system: NCI-H460
Summary of the method: as §1

[11] = system: HCC-366
Summary of the method: as §1

[12] = system: EPLC-272H
Summary of the method: as §1

[13] = system: A-427
Summary of the method: as §1

[14] = system: NCI-H1975
Summary of the method: as §1

[15] = system: HOP-62
Summary of the method: as §1

[16] = system: LCLC-97TM1
Summary of the method: as §1

[17] = system: UMC-11
Summary of the method: as §1

[18] = system: NCI-H1915
Summary of the method: as §1

CC(C)Oc1cc(Nc2nc(N[C@@H](C)c3ccc(F)cn3)ncc2Cl)n[nH]1 [AZ23] + CC(C)C[C@H](NC(=O)[C@H](Cc1ccccc1)NC(=O)c1cnccn1)B(O)O [Bortezomib] (partner 0.002 µM)
relative viability ([1]; first compound 0.01 µM): 1.27
relative viability ([1]; first compound 0.03162 µM): 1.12
relative viability ([1]; first compound 0.3162 µM): 1.06
relative viability ([2]; first compound 0.01 µM): 1.16
relative viability ([2]; first compound 0.03162 µM): 1.2
relative viability ([2]; first compound 0.3162 µM): 1.01
relative viability ([3]; first compound 0.03162 µM): 1.33
relative viability ([3]; first compound 0.3162 µM): 1.26
relative viability ([4]; first compound 0.01 µM): 1.11
relative viability ([4]; first compound 0.03162 µM): 1.05
relative viability ([4]; first compound 0.3162 µM): 0.979
relative viability ([5]; first compound 0.01 µM): 0.991
relative viability ([5]; first compound 0.03162 µM): 1.03
relative viability ([5]; first compound 0.3162 µM): 1.01
relative viability ([6]; first compound 0.01 µM): 0.395
relative viability ([6]; first compound 0.03162 µM): 0.507
relative viability ([6]; first compound 0.3162 µM): 0.335
relative viability ([7]; first compound 0.01 µM): 1.13
relative viability ([7]; first compound 0.03162 µM): 1.2
relative viability ([7]; first compound 0.3162 µM): 1.13
relative viability ([8]; first compound 0.01 µM): 1.16
relative viability ([8]; first compound 0.03162 µM): 1.07
relative viability ([8]; first compound 0.3162 µM): 1.03
relative viability ([9]; first compound 0.01 µM): 0.733
relative viability ([9]; first compound 0.03162 µM): 1.04
relative viability ([9]; first compound 0.3162 µM): 0.757
relative viability ([10]; first compound 0.01 µM): 0.915
relative viability ([10]; first compound 0.03162 µM): 1.47
relative viability ([10]; first compound 0.3162 µM): 1.38
relative viability ([11]; first compound 0.01 µM): 1.26
relative viability ([11]; first compound 0.03162 µM): 1.34
relative viability ([11]; first compound 0.3162 µM): 1.1
relative viability ([12]; first compound 0.01 µM): 0.942
relative viability ([12]; first compound 0.03162 µM): 1.02
relative viability ([13]; first compound 0.01 µM): 1.07
relative viability ([13]; first compound 0.03162 µM): 1.11
relative viability ([13]; first compound 0.3162 µM): 0.969
relative viability ([14]; first compound 0.01 µM): 0.393
relative viability ([14]; first compound 0.03162 µM): 0.372
relative viability ([14]; first compound 0.3162 µM): 0.375
relative viability ([15]; first compound 0.01 µM): 0.821
relative viability ([15]; first compound 0.03162 µM): 0.517
relative viability ([15]; first compound 0.3162 µM): 0.867
relative viability ([16]; first compound 0.01 µM): 0.277
relative viability ([16]; first compound 0.03162 µM): 1
relative viability ([16]; first compound 0.3162 µM): 0.755
relative viability ([17]; first compound 0.01 µM): 0.766
relative viability ([17]; first compound 0.03162 µM): 0.86
relative viability ([17]; first compound 0.3162 µM): 0.808
relative viability ([18]; first compound 0.01 µM): 1.26
relative viability ([18]; first compound 0.03162 µM): 1.09
relative viability ([18]; first compound 0.3162 µM): 1.05

Clc1ccc(Nc2nnc(Cc3ccncc3)c3ccccc23)cc1 [Vatalanib] + CC(C)C[C@H](NC(=O)[C@H](Cc1ccccc1)NC(=O)c1cnccn1)B(O)O [Bortezomib] (partner 0.002 µM)
relative viability ([1]; first compound 0.04 µM): 0.946
relative viability ([1]; first compound 0.1265 µM): 0.9
relative viability ([1]; first compound 0.4 µM): 0.915
relative viability ([1]; first compound 1.265 µM): 0.921
relative viability ([1]; first compound 4 µM): 0.972
relative viability ([2]; first compound 0.04 µM): 0.987
relative viability ([2]; first compound 0.1265 µM): 1.01
relative viability ([2]; first compound 0.4 µM): 1.17
relative viability ([2]; first compound 1.265 µM): 1
relative viability ([2]; first compound 4 µM): 0.952
relative viability ([3]; first compound 0.04 µM): 1.25
relative viability ([3]; first compound 0.1265 µM): 0.981
relative viability ([3]; first compound 1.265 µM): 1.19
relative viability ([3]; first compound 4 µM): 1.14
relative viability ([4]; first compound 0.04 µM): 1.07
relative viability ([4]; first compound 0.1265 µM): 0.976
relative viability ([4]; first compound 0.4 µM): 0.991
relative viability ([4]; first compound 1.265 µM): 0.931
relative viability ([4]; first compound 4 µM): 0.964
relative viability ([5]; first compound 0.04 µM): 1.07
relative viability ([5]; first compound 0.1265 µM): 0.952
relative viability ([5]; first compound 0.4 µM): 1.08
relative viability ([5]; first compound 1.265 µM): 0.995
relative viability ([5]; first compound 4 µM): 0.947
relative viability ([6]; first compound 0.04 µM): 0.391
relative viability ([6]; first compound 0.1265 µM): 0.493
relative viability ([6]; first compound 0.4 µM): 0.474
relative viability ([6]; first compound 1.265 µM): 0.495
relative viability ([6]; first compound 4 µM): 0.571
relative viability ([7]; first compound 0.04 µM): 1.19
relative viability ([7]; first compound 0.1265 µM): 1.16
relative viability ([7]; first compound 0.4 µM): 1.27
relative viability ([7]; first compound 1.265 µM): 1.22
relative viability ([7]; first compound 4 µM): 1.19
relative viability ([8]; first compound 0.04 µM): 0.938
relative viability ([8]; first compound 0.1265 µM): 0.926
relative viability ([8]; first compound 0.4 µM): 0.992
relative viability ([8]; first compound 1.265 µM): 0.88
relative viability ([8]; first compound 4 µM): 0.974
relative viability ([9]; first compound 0.04 µM): 0.941
relative viability ([9]; first compound 0.1265 µM): 0.783
relative viability ([9]; first compound 0.4 µM): 0.931
relative viability ([9]; first compound 1.265 µM): 0.713
relative viability ([9]; first compound 4 µM): 0.651
relative viability ([10]; first compound 0.04 µM): 1.07
relative viability ([10]; first compound 0.1265 µM): 0.919
relative viability ([10]; first compound 0.4 µM): 1.03
relative viability ([10]; first compound 1.265 µM): 1.03
relative viability ([10]; first compound 4 µM): 1.02
relative viability ([11]; first compound 0.04 µM): 1.09
relative viability ([11]; first compound 0.1265 µM): 0.924
relative viability ([11]; first compound 0.4 µM): 1.03
relative viability ([11]; first compound 1.265 µM): 1.06
relative viability ([11]; first compound 4 µM): 1.05
relative viability ([12]; first compound 0.04 µM): 1.08
relative viability ([12]; first compound 0.1265 µM): 0.93
relative viability ([12]; first compound 0.4 µM): 0.843
relative viability ([12]; first compound 1.265 µM): 0.971
relative viability ([12]; first compound 4 µM): 0.982
relative viability ([13]; first compound 0.04 µM): 0.965
relative viability ([13]; first compound 0.1265 µM): 0.926
relative viability ([13]; first compound 0.4 µM): 0.96
relative viability ([13]; first compound 1.265 µM): 0.941
relative viability ([13]; first compound 4 µM): 0.997
relative viability ([14]; first compound 0.04 µM): 0.407
relative viability ([14]; first compound 0.1265 µM): 0.352
relative viability ([14]; first compound 0.4 µM): 0.422
relative viability ([14]; first compound 1.265 µM): 0.374
relative viability ([14]; first compound 4 µM): 0.379
relative viability ([15]; first compound 0.04 µM): 0.977
relative viability ([15]; first compound 0.4 µM): 0.857
relative viability ([15]; first compound 1.265 µM): 0.849
relative viability ([15]; first compound 4 µM): 1.09
relative viability ([16]; first compound 0.04 µM): 0.529
relative viability ([16]; first compound 0.1265 µM): 0.523
relative viability ([16]; first compound 0.4 µM): 0.528
relative viability ([16]; first compound 1.265 µM): 0.31
relative viability ([16]; first compound 4 µM): 0.769
relative viability ([17]; first compound 0.04 µM): 0.802
relative viability ([17]; first compound 0.1265 µM): 0.771
relative viability ([17]; first compound 0.4 µM): 0.709
relative viability ([17]; first compound 1.265 µM): 0.717
relative viability ([17]; first compound 4 µM): 0.688
relative viability ([18]; first compound 0.04 µM): 0.949
relative viability ([18]; first compound 0.1265 µM): 0.923
relative viability ([18]; first compound 0.4 µM): 0.993
relative viability ([18]; first compound 1.265 µM): 0.936
relative viability ([18]; first compound 4 µM): 0.987
